According to patent US8546373B2 (Biogenic Innovations, LLC, priority 2009, dated 2013):

Tested on: Streptococcus pneumonia
Conditions: 7 h, 5 %

In the case of `C[S+](C)[O-]` [DMSO, dimethyl sulfoxide], the reduction in viability is reported as “approximately 25%”.
